Data published in ChEMBL document CHEMBL6083229, “Bisubstrate inhibitors of 6-hydroxymethyl-7,8-dihydroptein pyrophosphokinase: Toward cell permeability” (Bioorg Med Chem Lett, 2024).
Converted amounts (≈) assume the structure as drawn.

Experiments:
Escherichia coli = experiment: Antibacterial activity against Escherichia coli MG1655 assessed as inhibition of bacterial growth in LB media; assay type: functional
[1] = Binding affinity to HPPK (unknown origin) assessed as dissociation constant by MST analysis; set-up: species or system Bacteria
[2] = test system: Staphylococcus epidermidis; experiment: Antibacterial activity against Staphylococcus epidermidis assessed as inhibition of bacterial growth in LB media; assay type: functional

**Q.** For `Nc1nc2[nH]cc(CCCN3CCC(SC[C@H]4O[C@@H](n5cnc6c(N)ncnc65)[C@H](O)[C@@H]4O)CC3C(=O)O)c2c(=O)[nH]1` (stereo partly specified), which MIC10 (Escherichia coli) is on record?
**A.** 400 µM (≈ 240 µg/mL)

**Q.** And the MIC30 (Escherichia coli)?
**A.** 2000 µM (≈ 1200 µg/mL)

**Q.** What about the Kd [1] of the same molecule?
**A.** 12.8 µM

**Q.** And the MIC50 [2]?
**A.** 120 µM (≈ 72.1 µg/mL)

**Q.** And the MIC90 [2]?
**A.** 240 µM (≈ 144 µg/mL)

**Q.** And the MIC ([2]; read-out: MIC100)?
**A.** 400 µM (≈ 240 µg/mL)
